Laboratory results: ChEMBL document CHEMBL3272344, “Synthesis of 5-substituted aminomethyluracils via the Mannich reaction” (J Med Chem, 1976)
The source made the active and inactive calls. No cut-off for these calls is given here.

Key:
L1210 = assay: Antitumor activity against mouse L1210 cells allografted in mouse up to 400 mg/kg; type: functional, organism-based; parameters: dose 400 mg/kg
Mus musculus [1] = assay: Toxicity in Plasmodium berghei infected mouse at 320 mg/kg; type: organism-based; parameters: dose 320 mg/kg; details: in vivo
Gallus gallus [2] = assay: Toxicity in Plasmodium gallinaceum B infected chick at 160 mg/kg; type: organism-based; parameters: dose 160 mg/kg; details: chicken, in vivo
Plasmodium berghei [3] = assay: Antimalarial activity against Plasmodium berghei infected in mouse at 320 mg/kg; type: functional, organism-based; parameters: dose 320 mg/kg
Mus musculus [4] = assay: Toxicity in mouse L1210 cells allografted mouse up to 400 mg/kg; type: organism-based; parameters: dose 400 mg/kg; details: in vivo
Plasmodium gallinaceum [5] = assay: Antimalarial activity against Plasmodium gallinaceum B infected in chick at 160 mg/kg; type: functional, organism-based; parameters: dose 160 mg/kg
Plasmodium berghei [6] = assay: Antimalarial activity against Plasmodium berghei infected in mouse at 640 mg/kg; type: functional, organism-based; parameters: dose 640 mg/kg
Mus musculus [7] = assay: Toxicity in Plasmodium berghei infected mouse at 640 mg/kg; type: organism-based; parameters: dose 640 mg/kg; details: in vivo
Gallus gallus [8] = assay: Toxicity in Plasmodium gallinaceum B infected chick at 100 mg/kg; type: organism-based; parameters: dose 100 mg/kg; details: chicken, in vivo
Plasmodium gallinaceum [9] = assay: Antimalarial activity against Plasmodium gallinaceum B infected in chick at 100 mg/kg; type: functional, organism-based; parameters: dose 100 mg/kg
Plasmodium gallinaceum [10] = assay: Antimalarial activity against Plasmodium gallinaceum B infected in chick at 120 mg/kg; type: functional, organism-based; parameters: dose 120 mg/kg
Gallus gallus [11] = assay: Toxicity in Plasmodium gallinaceum B infected chick at 120 mg/kg; type: organism-based; parameters: dose 120 mg/kg; details: chicken, in vivo

Structure (SMILES) | Activity (L1210) | Activity (Mus musculus [1]) | Activity (Plasmodium berghei [3]) | Activity (Mus musculus [4]) | Activity (Plasmodium berghei [6]) | Activity (Mus musculus [7]) | further results
O=c1[nH]cc(CNC2CCCCC2)c(=O)[nH]1 | inactive | Non-toxic | inactive | Non-toxic | – | – | Activity (Gallus gallus [2]): Non-toxic; Activity (Plasmodium gallinaceum [5]): inactive
CN(C)Cc1c[nH]c(=O)[nH]c1=O | inactive | – | – | Non-toxic | – | – | –
COc1ccc(NCc2c[nH]c(=O)[nH]c2=O)cc1 | – | Non-toxic | inactive | – | – | – | Activity (Gallus gallus [2]): Non-toxic; Activity (Plasmodium gallinaceum [5]): inactive
Cc1cccc(NCc2c[nH]c(=O)[nH]c2=O)c1 | – | – | – | – | inactive | Non-toxic | –
CCCCNCc1c[nH]c(=O)[nH]c1=O | – | – | – | – | inactive | Non-toxic | Activity (Gallus gallus [8]): Non-toxic; Activity (Plasmodium gallinaceum [9]): inactive
O=c1[nH]cc(CNc2ccc(Cl)cc2)c(=O)[nH]1 | – | Non-toxic | inactive | – | – | – | –
O=c1[nH]cc(CNc2ccccc2)c(=O)[nH]1 | inactive | – | – | Non-toxic | inactive | Non-toxic | Activity (Plasmodium gallinaceum [10]): inactive; Activity (Gallus gallus [11]): Non-toxic
